In patent publication US20140017790A1, “CONTROL AGENT FOR CONTROLLING UNDIFFERENTIATED STATE AND USE THEREOF” (RIKEN, priority 2011, published 2014):

Assays:
Type in all cases: cell-based
[1] = test system: human iPS cells; test: phase-contrast morphology of human iPS cells with JAK or PI3K inhibitor; details: 6 days
Method: As a JAK inhibitor, a JAK inhibitor I (Merck) was used. As PI3K inhibitor, the same LY294002 as used in Example 4 was used. Human iPS cells were cultured for 6 days under feeder conditions in the same manner as in the above item (1), except that not only the CCL2 but also the JAK inhibitor or the PI3K inhibitor further was added to the medium. In the medium, the concentration of the Jak inhibitor was set to 10 ng/ml, and the concentration of the PI3K inhibitor was set to 5 ng/ml.
Furthermore, as a control, the cells were cultured in the same manner as in the above using the following media, respectively: a medium containing bFGF instead of the CCL2 and containing DMSO (5 ng/ml) instead of the inhibitor; and a medium containing bFGF (5 ng/ml) instead of the CCL2 and containing the inhibitor.
The phase-contrast micrographs show the results obtained under the conditions of, from the above: the inhibitor not added (DMSO added); the JAK inhibitor added; and the PI3K inhibitor added.

[2] = test system: mouse iPS cells; test: siRNA knockdown and quantitative RT-PCR in mouse iPS cells
Method: A PrimeScript RT-PCR Kit (trade name, TAKARA BIO INC.), an ABI 7500 Fast real time PCR system (trade name, Applied BioSystems), and a SYBR (registered trademark) Premix Ex Taq (trade name, TAKARA BIO INC.) were used in accordance with their protocols. PCR was carried out by conducting 40 cycles of treatment with a treatment at 94° C. for 5 second and at 62.5° C. for 20 seconds as 1 cycle. The expression level of each gene was calculated by normalizing the relative amount of mRNA in the gene to Gapdh mRNA according to the 2^−ΔΔ^CT method (Thomse R, Solvsten C A, Linnet T E, et al., Analysis of qPCR data by converting exponentially related Ct values into linearly related XO values. J Bioinform Comput Biol 2010: 8: 885-900.). […]
The Stealth siRNA was added so that the final concentration thereof per well was […]. Then, 24 hours after the transfection, total RNAs were extracted, and the expression levels of the undifferentiated marker genes and the Ccl2 gene in the mouse iPS cells were determined by the quantitative RT-PCR.
Also, as a negative control, the mouse iPS cells were subjected to transfection in the same manner as in the above, except that Stealth siRNA (trade name: Stealth RNAi (registered trademark) Negative Control Medium GC, Duplex-catalog number 12935-300, Invitrogen) was used, and the expressions of the undifferentiated marker genes were measured (n=3). […]

[3] = test system: human iPS cells; test: culture of human iPS cells in feeder free media, EB plating, cell adhesion; details: LIF not added, CCL2 500 ng/ml alone or bFGF 5 ng/ml alone
Excerpt: As undifferentiated cells, the same human iPS cells as used in Example 7 were used. As CCL2, the mouse recombinant CCL2 used in the item (1) of Example 2 was used. As feeder free media, the following three kinds of media were provided by adding or not adding the CCL2, LIF and bFGF to the medium for human stem cells used in Example 8. Specifically, the media used were as follows: the medium with CCL2 not added (−)/LIF not added (−)/bFGF added (+); the medium with CCL2 added (+)/LIF not added (−)/bFGF not added (−); and the medium with CCL2 added (+)/LIF added (+)/bFGF not added (−). In each medium, the concentration of the LIF was set to 50 units/ml, the concentration of the CCL2 was set to 500 ng/ml, and the concentration of the bFGF was set to 5 ng/ml. Then, the human iPS cells were cultured for 6 days using each medium, and EBs were produced. Thereafter, the thus-produced EBs were seeded in gelatin coated dishes so that each gelatin coated dish contained one EB, and cultured for 5 days in a medium (DMEM) containing 20% FBS.
The photographs in FIG. 20 show the cell morphologies of the EBs on the 5th day from the plating.

[4] = test system: human iPS cells; test: EB formation and spontaneous differentiation, cell morphology; details: third day from the plating; iPS cells precultured 6 days with the substance
Method: Human iPS cells were cultured for 6 days under feeder conditions in the same manner as in Example 7. Thereafter, embryonic bodies (EBs) were produced. EB formation is known as a spontaneous differentiation-inducing method for inducing the differentiation of iPS cells. Specifically, first, a ROCK inhibitor (Y-27632, WAKO) was added to the culture solution being used for the culture of the human iPS cells so that the concentration thereof was […], and the human iPS cells were cultured for 1 hour under the conditions of 37° C. and 5% CO2. Then, the feeder cells used for the culture were dissociated with a human ES/iPS cell dissociation solution (CTK solution), and the human iPS cells were collected. Then, 1×10^6 of the human iPS cells were seeded in an ultra-low adhesion culture vessel, and cultured for 6 days in an EB preparation medium (DMEM/F12, Knockout SR, L-glutamine, NEAA (non-essential amino acid (GIBCO)), 2-ME, Pen/Strep). The medium was replaced every two days.
Next, spontaneous differentiation was induced. Specifically, the produced EBs were seeded in gelatin coated dishes so that each gelatin coated dish contained one EB. Each EB was cultured for 14 days in a medium (DMEM) containing 20% FBS, and then observed with a microscope. The medium was replaced every two days. The photographs in FIG. 18 show the cell morphology on the third day from the plating.

[5] = test system: human iPS cells; test: differentiation of EBs to myocardial cells, morphology and Tropomyosin immunostaining; details: 10th day from the plating; CCL2(+)/LIF(+) or CCL2(-)/bFGF(+) 5 ng/ml
Excerpt: It has been reported that, in general, according to the spontaneous differentiation-inducing method used in the above item (1), differentiation into myocardial cells is more liable to occur. Thus, regarding the cells on the 10th day from the plating in the above item (1), differentiation into myocardial cells was examined.
The morphology of the cells was examined with a microscope. Furthermore, they were immunostained with a Tropomyosin, which is a marker for myocardial cells. Also, culture of the cells, observation of the morphology, and staining were carried out in the same manner as in the above using a medium to which bFGF (5 ng/ml) has been added instead of the CCL2 and LIF.
The photographs in FIG. 19 show the morphologies of the cells on the 10th day from the plating of EB. […] Furthermore, in FIGS. 19A and 19B, the photographs on the left show the cell morphologies, and the photographs on the right show the stained cells. In the black and white photographs of FIG. 19, the stained portions are seen as light gray.

[6] = test system: human iPS cells; test: quantitative RT-PCR of undifferentiated marker genes in human iPS cells under feeder conditions; details: CCL2 500 ng/ml, 6 days, relative to bFGF 5 ng/ml
Method: A PrimeScript RT-PCR Kit (trade name, TAKARA BIO INC.), an ABI 7500 Fast real time PCR system (trade name, Applied BioSystems), and a SYBR (registered trademark) Premix Ex Taq (trade name, TAKARA BIO INC.) were used in accordance with their protocols. PCR was carried out by conducting 40 cycles of treatment with a treatment at 94° C. for 5 second and at 62.5° C. for 20 seconds as 1 cycle. The expression level of each gene was calculated by normalizing the relative amount of mRNA in the gene to Gapdh mRNA according to the 2^−ΔΔ^CT method (Thomse R, Solvsten C A, Linnet T E, et al., Analysis of qPCR data by converting exponentially related Ct values into linearly related XO values. J Bioinform Comput Biol 2010: 8: 885-900.).
The human iPS cells were used as undifferentiated cells, and human recombinant CCL2 (137-13011, WAKO, SEQ ID NO: 1) was used as the CCL2. The medium used was a medium for human stem cells (trade name “Primate ES medium”, ReproCELL Incorporated). To this medium, LIF was not added, and the CCL2 was added. The concentration of the CCL2 in the medium was set to 500 ng/ml. Under the above-described feeder conditions, the human iPS cells were cultured on the feeder cells SNL76/7 that produce LIF in the above-described medium. Then, 6 days after the start of the culture, the feeder cells were removed, and total RNAs were collected from the cultured human iPS cells. The undifferentiated marker genes were then subjected to the quantitative RT-PCR.
Also, as a negative control, the human iPS cells were cultured under the feeder conditions and the undifferentiated marker genes were subjected to quantitative RT-PCR in the same manner as in the above, except that bFGF (derived from human, WAKO) was added instead of the CCL2 so that the concentration thereof was 5 ng/ml. Thereafter, assuming that the expression level in the comparative example was 1, the relative value with respect to this value was calculated as the fold change in expression level.

CC(C)(C)c1nc2c3cc[nH]c(=O)c3c3cc(F)ccc3c2[nH]1 [Jak inhibitor, reference compound]
undifferentiation potency, cell morphology ([1]; Jak inhibitor 10 ng/ml, both bFGF(+)/CCL2(-) and bFGF(-)/CCL2(+)): all the cells had been differentiated and many dead cells were observed

siRNA against the Ccl2 gene: Stealth siRNA (Invitrogen), sequence SEQ ID NO: 7 CAUUCACCAGCAAGAUGAUCCCAAU (commercial Stealth siRNA, chemistry not given here)
expressions of the undifferentiated marker genes (Klf4, Tbx3) after knockdown of the Ccl2 gene ([2]; 24 hours after transfection, relative to negative control siRNA): decreased markedly

bFGF: bFGF (derived from human, WAKO), added instead of the CCL2 as negative control
cell adhesion [3]: not observed | morphology of EB after spontaneous differentiation-inducing culture [4]: epithelial cell-like morphology | cell morphology of EBs, differentiation into myocardial cells [5]: most of them were epithelial cell-like cells | staining with Tropomyosin (marker for myocardial cells) [5]: not stained | undifferentiation potency, cell morphology ([1]; inhibitor not added (DMSO added), bFGF(+)/CCL2(-) or bFGF(-)/CCL2(+)): most of the cells maintained the undifferentiation potency, but some of the cells were differentiated

human recombinant CCL2: human recombinant CCL2 (137-13011, WAKO, SEQ ID NO: 1)
expression of the KLF4 gene, fold change [6]: about two-fold | expression of the Nanog gene, fold change [6]: about two-fold | expression of the REX1 gene, fold change [6]: about two-fold | expression of the STELLA gene, fold change [6]: about two-fold

siRNA against the Klf4 gene: Stealth siRNA (Invitrogen), sequence SEQ ID NO: 8 CAAGUUUGUGCUGAAGGCGUCUCUG (commercial Stealth siRNA, chemistry not given here)
expression of the Tbx3 gene after knockdown of the Klf4 gene ([2]; 24 hours, relative to negative control): decreased markedly
